pKi: −log10 of the molar value.

As usually defined, the pKi is the negative decadic logarithm of the Ki, by convention in mol/L. Lower therefore signals a high Ki.

The assay concerns the target T1, Alpha-1A/Alpha-1B/Alpha-1D adrenergic receptor (Rattus norvegicus, UniProt P15823+P43140+P23944).
T1 sequence (P15823 whole entry): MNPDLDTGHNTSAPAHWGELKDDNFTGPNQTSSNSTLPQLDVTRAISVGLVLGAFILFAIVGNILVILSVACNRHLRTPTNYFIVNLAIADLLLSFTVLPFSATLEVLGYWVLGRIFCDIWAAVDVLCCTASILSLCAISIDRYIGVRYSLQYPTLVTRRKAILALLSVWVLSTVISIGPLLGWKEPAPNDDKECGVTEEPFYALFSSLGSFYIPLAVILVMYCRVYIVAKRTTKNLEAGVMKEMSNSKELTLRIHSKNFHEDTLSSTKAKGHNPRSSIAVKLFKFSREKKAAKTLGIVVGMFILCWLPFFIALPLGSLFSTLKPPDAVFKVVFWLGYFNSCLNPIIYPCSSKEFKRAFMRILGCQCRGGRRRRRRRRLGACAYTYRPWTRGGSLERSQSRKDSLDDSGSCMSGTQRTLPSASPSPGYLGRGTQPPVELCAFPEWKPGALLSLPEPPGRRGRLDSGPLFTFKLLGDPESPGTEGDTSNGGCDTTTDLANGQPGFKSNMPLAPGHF
T1 sequence (P43140 whole entry): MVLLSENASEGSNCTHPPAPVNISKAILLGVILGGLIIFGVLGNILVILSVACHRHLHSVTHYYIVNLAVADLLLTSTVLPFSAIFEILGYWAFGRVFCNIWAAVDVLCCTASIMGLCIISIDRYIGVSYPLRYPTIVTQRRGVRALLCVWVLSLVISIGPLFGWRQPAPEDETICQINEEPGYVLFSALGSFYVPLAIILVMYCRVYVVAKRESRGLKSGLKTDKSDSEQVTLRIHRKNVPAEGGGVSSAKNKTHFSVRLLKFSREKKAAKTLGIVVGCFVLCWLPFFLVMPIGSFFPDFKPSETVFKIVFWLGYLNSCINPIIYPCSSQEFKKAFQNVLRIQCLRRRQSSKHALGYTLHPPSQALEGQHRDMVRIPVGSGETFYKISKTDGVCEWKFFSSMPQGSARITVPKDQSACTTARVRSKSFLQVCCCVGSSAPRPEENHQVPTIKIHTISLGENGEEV
T1 sequence (P23944 whole entry): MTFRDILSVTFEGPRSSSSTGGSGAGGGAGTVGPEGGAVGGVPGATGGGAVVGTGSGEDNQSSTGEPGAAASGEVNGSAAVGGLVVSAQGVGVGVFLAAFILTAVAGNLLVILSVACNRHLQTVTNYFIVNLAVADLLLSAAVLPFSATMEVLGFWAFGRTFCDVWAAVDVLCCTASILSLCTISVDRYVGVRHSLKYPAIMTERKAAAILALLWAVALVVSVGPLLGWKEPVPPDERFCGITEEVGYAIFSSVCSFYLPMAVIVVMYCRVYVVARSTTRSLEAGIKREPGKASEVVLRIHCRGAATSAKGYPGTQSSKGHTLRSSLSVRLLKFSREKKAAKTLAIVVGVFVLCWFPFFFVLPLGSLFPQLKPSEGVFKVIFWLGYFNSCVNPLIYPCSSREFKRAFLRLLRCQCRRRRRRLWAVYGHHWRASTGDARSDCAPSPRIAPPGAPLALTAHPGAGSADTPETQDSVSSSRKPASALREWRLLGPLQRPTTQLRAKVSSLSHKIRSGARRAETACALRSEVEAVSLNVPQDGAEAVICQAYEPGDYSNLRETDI
The experiment in a line: Binding affinity towards Alpha-1 adrenergic receptor in rat cerebral cortex membranes using [3H]prazosin as radioligand.

In the case of `O=c1n(CN2CCN(c3cccc4ccccc34)CC2)c(O)c2n1CCC2` [2-(4-Naphthalen-1-yl-piperazin-1-ylmethyl)-tetrahydro-pyrrolo[1,2-c]imidazole-1,3-dione], the pKi is below 6.00.

Source of the values: BindingDB's records for doi:10.1016/s0960-894x(03)00160-4 (Universidad Complutense, 2003).
